Results reported in patent publication US10533000B2, “Metabotrophic glutamate receptor 5 modulators and methods of use thereof” (Sunovion Pharmaceuticals, Inc., priority 2011, dated 2020).

Molecular target: mGluR5 (Homo sapiens, UniProt P41594)
Assay: mGluR5 positive allosteric modulator (PAM) functional assay
Format: cell-based

Sequence of mGluR5 (P41594 21-1212): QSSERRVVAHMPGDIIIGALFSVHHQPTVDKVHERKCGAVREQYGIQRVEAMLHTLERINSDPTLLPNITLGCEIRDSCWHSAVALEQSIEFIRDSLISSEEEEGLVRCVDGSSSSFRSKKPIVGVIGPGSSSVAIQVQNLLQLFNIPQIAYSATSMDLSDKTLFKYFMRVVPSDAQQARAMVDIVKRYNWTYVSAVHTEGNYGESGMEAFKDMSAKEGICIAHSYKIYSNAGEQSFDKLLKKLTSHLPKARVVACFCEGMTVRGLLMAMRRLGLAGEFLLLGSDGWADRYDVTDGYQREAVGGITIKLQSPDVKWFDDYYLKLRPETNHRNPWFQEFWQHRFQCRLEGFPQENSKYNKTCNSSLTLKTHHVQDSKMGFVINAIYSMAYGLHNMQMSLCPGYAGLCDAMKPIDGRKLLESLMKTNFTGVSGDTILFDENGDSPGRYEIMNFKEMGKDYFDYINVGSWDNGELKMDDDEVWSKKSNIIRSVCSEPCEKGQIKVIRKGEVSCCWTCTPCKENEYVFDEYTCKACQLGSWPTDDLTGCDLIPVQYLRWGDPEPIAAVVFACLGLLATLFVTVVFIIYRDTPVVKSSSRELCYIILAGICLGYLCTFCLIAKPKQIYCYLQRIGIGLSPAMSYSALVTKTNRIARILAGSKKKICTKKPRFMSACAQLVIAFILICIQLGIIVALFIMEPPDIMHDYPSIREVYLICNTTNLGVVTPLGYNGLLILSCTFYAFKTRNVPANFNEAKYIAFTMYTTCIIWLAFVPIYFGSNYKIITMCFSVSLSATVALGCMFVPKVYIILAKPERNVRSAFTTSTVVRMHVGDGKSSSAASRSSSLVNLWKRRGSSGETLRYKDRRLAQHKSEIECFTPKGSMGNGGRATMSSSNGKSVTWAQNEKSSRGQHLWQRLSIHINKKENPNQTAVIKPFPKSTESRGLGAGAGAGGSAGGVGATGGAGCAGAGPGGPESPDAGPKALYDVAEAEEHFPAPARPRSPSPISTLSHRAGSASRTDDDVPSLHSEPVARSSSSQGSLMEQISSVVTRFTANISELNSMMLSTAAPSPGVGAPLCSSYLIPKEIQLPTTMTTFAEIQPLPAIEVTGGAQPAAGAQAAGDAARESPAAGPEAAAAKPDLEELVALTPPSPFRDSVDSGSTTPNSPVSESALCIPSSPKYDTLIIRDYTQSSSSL

SMILES | EC50
CCC(C)c1nc(-c2ccc(C#Cc3cccc(F)c3)cc2)no1 (centres unmarked) [Compound 29, 5-5-(sec-butyl)-3-(4-((3-fluorophenyl)ethynyl)phenyl)-1,2,4-oxadiazole] | 100 to 300 nM
C[C@H](c1nc(-c2ccc(C#Cc3cccc(F)c3)cn2)no1)N(C)C [Compound 105, (R)-1-(3-(5-((3-fluorophenyl)ethynyl)pyridin-2-yl)-1,2,4-oxadiazol-5-yl)-N,N-dimethylethanamine] | 30 to 100 nM
CC(C)Cc1nc(-c2ccc(C#Cc3cccc(F)c3)cc2)no1 [Compound 26, 3-(4-((3-fluorophenyl)ethynyl)phenyl)-5-isobutyl-1,2,4-oxadiazole] | 300 to 1000 nM
CNC(C)(C)c1nc(-c2ccc(C#Cc3cccc(F)c3)cn2)no1 [Compound 112, 2-(3-(5-((3-fluorophenyl)ethynyl)pyridin-2-yl)-1,2,4-oxadiazol-5-yl)-N-methylpropan-2-amine] | ≤ 30 nM
CN1CCC1c1nc(-c2ccc(C#Cc3cccc(F)c3)cn2)no1 (centres unmarked) [Compound 101, 3-(5-((3-fluorophenyl)ethynyl)pyridin-2-yl)-5-(1-methylazetidin-2-yl)-1,2,4-oxadiazole] | 30 to 100 nM
Fc1cccc(C#Cc2ccc(-c3noc(C4CCCN4C4CCC4)n3)cc2)c1 (centres unmarked) [Compound 50, 5-(1-cyclobutylpyrrolidin-2-yl)-3-(4-((3-fluorophenyl)ethynyl)phenyl)-1,2,4-oxadiazole] | 300 to 1000 nM
CNC(C)(C)c1nc(-c2ccc(C#Cc3ccccn3)cn2)no1 [Compound 144, N-methyl-2-(3-(5-(pyridin-2-ylethynyl)pyridin-2-yl)-1,2,4-oxadiazol-5-yl)propan-2-amine] | 300 to 1000 nM
C(#Cc1ccccn1)c1ccc(-c2noc(C3CC4CCN3C4)n2)nc1 (centres unmarked) [Compound 174, 5-(1-azabicyclo[2.2.1]heptan-2-yl)-3-(5-(pyridin-2-ylethynyl)pyridin-2-yl)-1,2,4-oxadiazole] | 100 to 300 nM
CN1CCCC1(C)c1nc(-c2ccc(C#Cc3cccc(F)c3)cn2)no1 (centres unmarked) [Compound 51, 5-(1,2-dimethylpyrrolidin-2-yl)-3-(5-((3-fluorophenyl)ethynyl)pyridin-2-yl)-1,2,4-oxadiazole] | ≤ 30 nM
CN1CCCC1c1nc(-c2ccc(C#Cc3ccccn3)cc2)no1 (centres unmarked) [Compound 70, 5-(1-methylpyrrolidin-2-yl)-3-(4-(pyridin-2-ylethynyl)phenyl)-1,2,4-oxadiazole] | ≤ 30 nM
CC(c1nc(-c2ccc(C#Cc3cccc(F)c3)cc2)no1)N(C)C1CC1 (centres unmarked) [Compound 54, N-(1-(3-(4-((3-fluorophenyl)ethynyl)phenyl)-1,2,4-oxadiazol-5-yl)ethyl)-N-methylcyclopropanamine] | 300 to 1000 nM
CCC(OC)c1nc(-c2ccc(C#Cc3ccncc3)cc2)no1 (centres unmarked) [Compound 76, 5-(1-methoxypropyl)-3-(4-(pyridin-4-ylethynyl)phenyl)-1,2,4-oxadiazole] | 30 to 100 nM
Fc1cccc(C#Cc2ccc(-c3noc(C4CCCN4)n3)nc2)c1 (stereo in doubt) [Compound 121, (S)-3-(5-((3-fluorophenyl)ethynyl)pyridin-2-yl)-5-(pyrrolidin-2-yl)-1,2,4-oxadiazole] | 300 to 1000 nM
CCN(CC)C(C)c1nc(-c2ccc(C#Cc3cccc(F)c3)cn2)no1 (centres unmarked) [Compound 111, N,N-diethyl-1-(3-(5-((3-fluorophenyl)ethynyl)pyridin-2-yl)-1,2,4-oxadiazol-5-yl)ethanamine] | ≤ 30 nM
Fc1cccc(C#Cc2ccc(-c3noc(C4CCCN4C4CCC4)n3)nc2)c1 (centres unmarked) [Compound 126, 5-(1-cyclobutylpyrrolidin-2-yl)-3-(5-((3-fluorophenyl)ethynyl)pyridin-2-yl)-1,2,4-oxadiazole] | 30 to 100 nM
CN1C[C@@H](F)C[C@@H]1c1nc(-c2ccc(C#Cc3ccccn3)cn2)no1 [Compound 156, 5-((2R,4S)-4-fluoro-1-methylpyrrolidin-2-yl)-3-(5-(pyridin-2-ylethynyl)pyridin-2-yl)-1,2,4-oxadiazole] | 300 to 1000 nM
CN1CC(F)(F)C[C@@H]1c1nc(-c2ccc(C#Cc3ccccn3)cn2)no1 [Compound 154, (R)-5-(4,4-difluoro-1-methylpyrrolidin-2-yl)-3-(5-(pyridin-2-ylethynyl)pyridin-2-yl)-1,2,4-oxadiazole] | 300 to 1000 nM
CC(c1nc(-c2ccc(C#Cc3cccc(F)c3)cc2)no1)N1CCC1 (centres unmarked) [Compound 52, 5-(1-(azetidin-1-yl)ethyl)-3-(4-((3-fluorophenyl)ethynyl)phenyl)-1,2,4-oxadiazole] | 300 to 1000 nM
CCC(OC)c1nc(-c2ccc(C#Cc3ccccn3)nc2)no1 (centres unmarked) [Compound 89, 5-(1-methoxypropyl)-3-(6-(pyridin-2-ylethynyl)pyridin-3-yl)-1,2,4-oxadiazole] | 300 to 1000 nM
CCC(CC)c1nc(-c2ccc(C#Cc3ccccn3)cn2)no1 [Compound 136, 5-(pentan-3-yl)-3-(5-(pyridin-2-ylethynyl)pyridin-2-yl)-1,2,4-oxadiazole] | ≤ 30 nM
CCC(OC)c1nc(-c2ccc(C#Cc3cccc(F)c3)nc2)no1 (centres unmarked) [Compound 85, 3-(6-((3-fluorophenyl)ethynyl)pyridin-3-yl)-5-(1-methoxypropyl)-1,2,4-oxadiazole] | ≤ 30 nM
CCC(C)c1nc(-c2ccc(C#Cc3ccccn3)nc2)no1 (centres unmarked) [Compound 86, 5-(sec-butyl)-3-(6-(pyridin-2-ylethynyl)pyridin-3-yl)-1,2,4-oxadiazole] | 30 to 100 nM
CCC(C)c1nc(-c2ccc(C#Cc3ccccn3)cc2)no1 (centres unmarked) [Compound 67] | ≤ 30 nM
CC1(c2nc(-c3ccc(C#Cc4cccc(F)c4)cn3)no2)CCCN1 (centres unmarked) [Compound 122, 3-(5-((3-fluorophenyl)ethynyl)pyridin-2-yl)-5-(2-methylpyrrolidin-2-yl)-1,2,4-oxadiazole] | 100 to 300 nM
Fc1cccc(C#Cc2ccc(-c3noc(C4CCCN4)n3)nc2)c1 (stereo in doubt) [Compound 120, (R)-3-(5-((3-fluorophenyl)ethynyl)pyridin-2-yl)-5-(pyrrolidin-2-yl)-1,2,4-oxadiazole] | 100 to 300 nM
CN(C)C(C)(C)c1nc(-c2ccc(C#Cc3ccccn3)cn2)no1 [Compound 145, N,N-dimethyl-2-(3-(5-(pyridin-2-ylethynyl)pyridin-2-yl)-1,2,4-oxadiazol-5-yl)propan-2-amine] | 30 to 100 nM
CNC(C)c1nc(-c2ccc(C#Cc3cccc(F)c3)cn2)no1 (centres unmarked) [Compound 107, 1-(3-(5-((3-fluorophenyl)ethynyl)pyridin-2-yl)-1,2,4-oxadiazol-5-yl)-N-methylethanamine] | 30 to 100 nM
C#CCN1CCCC1c1nc(-c2ccc(C#Cc3cccc(F)c3)cn2)no1 (centres unmarked) [Compound 124, 3-(5-((3-fluorophenyl)ethynyl)pyridin-2-yl)-5-(1-(prop-2-yn-1-yl)pyrrolidin-2-yl)-1,2,4-oxadiazole] | ≤ 30 nM
C(#Cc1ccc(-c2noc(C3CCCN3)n2)nc1)c1ccccc1 (centres unmarked) [Compound 165, 3-(5-(phenylethynyl)pyridin-2-yl)-5-(pyrrolidin-2-yl)-1,2,4-oxadiazole] | 300 to 1000 nM
